This is an account of results in US7635663B2, “Method for thinning fruit blossoms using eugenol” (The United States of America as represented by the …, priority 2006, dated 2009).

Test [1] relates to 'Redhaven' on Lovell peach. Kind of test: Peach blossom thinning with different thinning agents, mist blower back pack sprayer, 2004. In kind it is in vivo, Prunus persica. As to conditions: 2004. On the procedure:
In 2004, fewer concentrations of eugenol were tested in comparison with other chemical blossom thinners in apple and peach. […] 2004 with a pressurized power mist blower back pack sprayer. Peach trees had been planted in April 1997 with a 3-m spacing between trees. Treatments included eugenol and Matran® each applied at 1, 2, 4, and 8%. […] Each tree was an experimental unit, buffer trees surrounded each treated tree, and there were 5 replications arranged in a completely randomized design.
Response variables included (1) percent flowers wilted 24 hr after application based on a 100 flower (peach) or flower cluster (apple) sample per tree; (2) number apple fruit retained after June drop from the same 100-flower sample per tree; (3) number and weight of fruit per tree at harvest by size category; (4) visual estimation from two people of foliar and shoot damage. Four branches per tree, each with 25 flowers, were measured; two branches opposite each other were perpendicular to the drive alley and the other two branches were opposite each other and parallel to the drive alley.

Test [2] deals with 'Gala' on M.26 apple trees. In kind it is in vivo, Malus domestica. The following applies: 2005; for Fruit (no./tree) / Fruit weight (kg/tree) / Individual fruit weight: Apple 'Gala'. On the procedure:
On Apr. […] Treatments were arranged in 4-tree plots and there were 4 blocks containing all 8 treatments. Data was collected from 2 trees per plot, so each treatment was an average of 8 trees. Data was analyzed by analysis of variance and Duncan's Multiple Range Test.

Test [3] deals with 'Bisbee Spur Delicious' on MM.111 apple trees. Briefly: Apple blossom thinning with eugenol and ATS, 2004. In kind it is in vivo, Malus domestica. On the procedure:
Each tree was an experimental unit, surrounded by buffer trees, with 4 single tree replications arranged in a completely randomized design.
Four branches per tree, each with 25 flowers, were measured; two branches opposite each other were perpendicular to the drive alley and the other two branches were opposite each other and parallel to the drive alley.

The mark [4] stands for this setting: Apple 'Bisbee', applied at 3.5 gal/A, 2004.

Read-outs that look alike come from different tables or passages of the source.

In the case of “ammonium thiosulfate [ATS, reference compound]”, in test [1], the “Fruit number per peach tree compared with control” value is reported as “reduced”. Besides, in test [1] (applied at 5.25 gal/A), the “Average fruit weight (g)” value is 125 a g and the “Total yield per tree (no.)” value was found to be 345 c no. Besides, in test [2] (thinner applied at 2%), the “Fruit (no./tree)” value is recorded as 789 no./tree, the “Fruit weight (kg/tree)” value was found to be 83.3 kg/tree and the “Individual fruit weight” value worked out at 109 g. In test [2] (thinner applied at 4%), the “Fruit (no./tree)” value stood at 706 no./tree, the “Fruit weight (kg/tree)” value is listed as 79.8 kg/tree and the “Individual fruit weight” value is recorded as 120 g. Further, the Performance as thinner result in test [2] (Apple) is “not a good thinner”. Further, in test [3] (setting [4]), the “Average fruit weight (g)” value was determined as 153 a g and the “Total yield per tree (no.)” value is 570 a no. Besides, in test [3] (Apple 'Bisbee', applied at 3.5 gal/A, April 2004), the “Flower burn back (% of flowers injured)” value is recorded as 50 a %. In addition, the Effect on yield result in test [3] (Apple, 2004) is “did not affect yield”.
